Assay results as given in patent publication US20120100105A1, “AGENT AND METHOD FOR TREATING REFRACTORY CHRONIC HEPATITIS C” (MEIJI SEIKA PHARMA CO., LTD., priority 2009, published 2012).

Experiments:
HCV = conditions: without ribavirin; cited from earlier work
genotype 1b HCV [1] = assay: Antiviral effect of 22β-methoxyolean-12-ene-3β,24(4β)-diol and PEG-IFN in refractory chronic hepatitis C (LVR case); blood HCV load by TaqMan PCR; type: in vivo, human; conditions: for Ratio of negativity achieved in blood HCV after 12 weeks from administrations (age) / Ratio of negativity achieved in blood HCV after 12 weeks from administrations (sex): LVR case
Description: Subjects were 21 patients (9 men, 12 women) infected with genotype 1b HCV and having chronic hepatitis C. […] To these subject patients in a refractory chronic hepatitis C case, a fine granule containing 25 mg or 400 mg of […] was orally administered twice a day and 180 μg of PEG-IFN-α-2a (Pegasys: manufactured by Roche Holding AG and Chugai Pharmaceutical Co., Ltd.) was subcutaneously administered per week. […] The blood HCV load was measured using the TaqMan® PCR method, and the baseline of negativity was below 1.2 Log IU/mL.
The backgrounds of all the patients in the two administration groups are as follows. […] These exceeded the baseline, 5.00 Log IU/mL, of the high viral load, and all the patients were infected with genotype 1b.

genotype 1b HCV [2] = assay: Antiviral effect of 22β-methoxyolean-12-ene-3β,24(4β)-diol and PEG-IFN in refractory chronic hepatitis C (NR case); blood HCV load by TaqMan PCR; type: in vivo, human; conditions: for Ratio of negativity achieved in blood HCV after 24 weeks from administrations: NR-case patients N=6; for Ratio of negativity achieved in blood HCV after 24 weeks from administrations (age) / Ratio of negativity achieved in blood HCV after 24 weeks from administrations (sex): NR case
Description: Subjects were the following patients (12 in total; 7 men, 5 women) who had been infected with genotype 1b HCV and had chronic hepatitis C and who were particularly considered to be highly refractory.
To these subject patients (NR case), a fine granule containing 25 mg or 400 mg of 22β-methoxyolean-12-ene-3β,24(4β)-diol was orally administered twice a day and 180 μg of PEG-IFN-α-2a (Pegasys: Roche Holding AG and Chugai Pharmaceutical Co., Ltd.) was subcutaneously administered per week. These administrations were continued for 24 weeks (hereinafter, the patients were referred to as a “50 mg/day administration group” or an “800 mg/day administration group”). The transitions of the blood HCV load and safety (clinical test value abnormality: blood hemoglobin value) before the administrations and up to 24 weeks were examined. The blood HCV load was measured using the TaqMan® PCR method, and the baseline of negativity was below 1.2 Log IU/mL.
The backgrounds of all the patients in the two administration groups are as follows. As for the sex, there were 7 men (58.3%) and 5 women […]. As for the age, the average age was 58.3, the youngest was 43 years old, and the oldest was 69 years old. With the baseline of 60 years old, there were 6 people who were under 60 years old (50.0%) and 6 people who were 60 years old or above (50.0%). The average blood HCV load of the patients before the administrations was 6.66 Log IU/mL with the minimum load of 5.30 Log IU/mL and the maximum load of 7.40 Log IU/mL. These exceeded the baseline, 5.00 Log IU/mL, of the high viral load, and all the patients were infected with genotype 1b.

[3] = 60 years old or above, 50 mg/day with PEG-IFN-α-2a
[4] = 60 years old or above, 800 mg/day with PEG-IFN-α-2a
[5] = 60 years old or above, total of both doses with PEG-IFN-α-2a
[6] = Men, 50 mg/day with PEG-IFN-α-2a
[7] = Men, 800 mg/day with PEG-IFN-α-2a
[8] = Men, total of both doses with PEG-IFN-α-2a
[9] = Women, 50 mg/day with PEG-IFN-α-2a
[10] = Women, 800 mg/day with PEG-IFN-α-2a
[11] = Women, total of both doses with PEG-IFN-α-2a
[12] = under 60 years old, 50 mg/day with PEG-IFN-α-2a
[13] = under 60 years old, 800 mg/day with PEG-IFN-α-2a
[14] = under 60 years old, total of both doses with PEG-IFN-α-2a

CO[C@@H]1CC(C)(C)C[C@H]2C3=CC[C@@H]4[C@@]5(C)CC[C@H](O)[C@](C)(CO)[C@@H]5CC[C@@]4(C)[C@]3(C)CC[C@@]12C [22β-methoxyolean-12-ene-3β,24(4β)-diol]
Anti-HCV activity in combination with an IFN (HCV): synergistic anti-HCV activity | Ratio of negativity achieved in blood HCV after 12 weeks from administrations (genotype 1b HCV [1]; 50 mg/day (25 mg orally twice a day) combined with PEG-IFN-α-2a 180 μg/week s.c., LVR-case patients N=11, negativity below 1.2 Log IU/mL): 63.6% (7/11) | Ratio of negativity achieved in blood HCV after 12 weeks from administrations (genotype 1b HCV [1]; 800 mg/day (400 mg orally twice a day) combined with PEG-IFN-α-2a 180 μg/week s.c., LVR-case patients N=10): 50.0% (5/10) | Ratio of negativity achieved in blood HCV after 12 weeks from administrations (age) (genotype 1b HCV [1]; [3]): 75.0% (6/8) | Ratio of negativity achieved in blood HCV after 12 weeks from administrations (age) (genotype 1b HCV [1]; [4]): 25.0% (1/4) | Ratio of negativity achieved in blood HCV after 12 weeks from administrations (age) (genotype 1b HCV [1]; [5]): 58.3% (7/12) | Ratio of negativity achieved in blood HCV after 12 weeks from administrations (sex) (genotype 1b HCV [1]; [6]): 60.0% (3/5) | Ratio of negativity achieved in blood HCV after 12 weeks from administrations (sex) (genotype 1b HCV [1]; [7]): 50.0% (2/4) | Ratio of negativity achieved in blood HCV after 12 weeks from administrations (sex) (genotype 1b HCV [1]; [8]): 55.6% (5/9) | Ratio of negativity achieved in blood HCV after 12 weeks from administrations (sex) (genotype 1b HCV [1]; [9]): 66.7% (4/6) | Ratio of negativity achieved in blood HCV after 12 weeks from administrations (sex) (genotype 1b HCV [1]; [10]): 50.0% (3/6) | Ratio of negativity achieved in blood HCV after 12 weeks from administrations (sex) (genotype 1b HCV [1]; [11]): 58.3% (7/12) | Blood HCV load continued to be negative for 48 weeks of the administration period (genotype 1b HCV [1]; patients negative by 12 weeks whose administrations (25 or 400 mg twice a day with PEG-IFN-α-2a 180 μg/week) were continued up to 48 weeks): two out of three patients | Relapse after the non-treatment period of subsequent 24 weeks (genotype 1b HCV [1]; the patients negative through 48 weeks of administration with PEG-IFN-α-2a, complete recovery was achieved): no relapse occurred | Ratio of negativity achieved in blood HCV after 12 weeks from administrations (age) (genotype 1b HCV [1]; [12]): 33.3% (1/3) | Ratio of negativity achieved in blood HCV after 12 weeks from administrations (age) (genotype 1b HCV [1]; [13]): 66.7% (4/6) | Ratio of negativity achieved in blood HCV after 12 weeks from administrations (age) (genotype 1b HCV [1]; [14]): 55.6% (5/9) | Ratio of negativity achieved in blood HCV after 24 weeks from administrations (genotype 1b HCV [2]; 50 mg/day (25 mg orally twice a day) combined with PEG-IFN-α-2a 180 μg/week s.c., negativity below 1.2 Log IU/mL): 50.0% (3/6) | Ratio of negativity achieved in blood HCV after 24 weeks from administrations (genotype 1b HCV [2]; 800 mg/day (400 mg orally twice a day) combined with PEG-IFN-α-2a 180 μg/week s.c.): 50.0% (3/6) | Ratio of negativity achieved in blood HCV after 24 weeks from administrations (age) (genotype 1b HCV [2]; [3]): 50.0% (1/2) | Ratio of negativity achieved in blood HCV after 24 weeks from administrations (age) (genotype 1b HCV [2]; [4]): 50.0% (2/4) | Ratio of negativity achieved in blood HCV after 24 weeks from administrations (age) (genotype 1b HCV [2]; [5]): 50.0% (3/6) | Ratio of negativity achieved in blood HCV after 24 weeks from administrations (sex) (genotype 1b HCV [2]; [6]): 50.0% (2/4) | Ratio of negativity achieved in blood HCV after 24 weeks from administrations (sex) (genotype 1b HCV [2]; [7]): 33.3% (1/3) | Ratio of negativity achieved in blood HCV after 24 weeks from administrations (sex) (genotype 1b HCV [2]; [8]): 42.9% (3/7) | Ratio of negativity achieved in blood HCV after 24 weeks from administrations (sex) (genotype 1b HCV [2]; [9]): 50.0% (1/2) | Ratio of negativity achieved in blood HCV after 24 weeks from administrations (sex) (genotype 1b HCV [2]; [10]): 66.7% (2/3) | Ratio of negativity achieved in blood HCV after 24 weeks from administrations (sex) (genotype 1b HCV [2]; [11]): 60.0% (3/5) | Ratio of negativity achieved in blood HCV after 24 weeks from administrations (age) (genotype 1b HCV [2]; [12]): 50.0% (2/4) | Ratio of negativity achieved in blood HCV after 24 weeks from administrations (age) (genotype 1b HCV [2]; [13]): 50.0% (1/2) | Ratio of negativity achieved in blood HCV after 24 weeks from administrations (age) (genotype 1b HCV [2]; [14]): 50.0% (3/6)
